{"source": "patent US20080194467A1", "about": "“CANCER TREATMENT METHODS USING CADHERIN ANTAGONISTS IN COMBINATION WITH ANTICANCER AGENTS” (ADHEREX TECHNOLOGIES, INC., priority 2006, published 2008)", "key": {"[1]": {"system": "human melanoma xenografts (DM366 and DM738)", "test": "Isolated limb infusion (ILI) of melphalan with or without systemic ADH-1 in nude rats bearing human melanoma xenografts", "assay_type": "in vivo", "settings": "day 60 after 15 minute regional infusion into the hind limb"}, "[2]": {"system": "human melanoma cell line DM738", "assay_type": "in vivo"}, "[3]": {"system": "Ovarian Tumor Cell Line A2780", "settings": "paclitaxel 30 mg/kg i.v. qodx5; ADH-1 100 mg/kg i.p. Day 1 then b.i.d.x20", "description": "In this set of experiments, 100 mg/kg of ADH-1 was administered i.p. as a single dose on Day 1 and then […].) for the duration of the treatment period. 30 mg/kg paclitaxel was administered i.v. on a qodx5 schedule starting on Day 2. For the combination groups, paclitaxel was always administered 5 minutes after the morning ADH-1 dose."}, "A375 tumors": {"system": "A375 tumors", "test": "In vivo combination therapy of A375 tumors, ADH-1 with temozolomide", "settings": "ADH-1 100 mg/kg i.p. qdx8; TMZ 100 mg/kg p.o. qdx5; administered separately", "description": "100 mg/kg of TMZ was administered p.o. on a qdx5 schedule starting on Day 4. For the combination groups, TMZ was always administered 1 hour after the ADH-1 dose. A375 tumors were resistant to both TMZ and ADH-1 when administered separately."}}, "note": "Where two headings read alike, the source gives them in different places. Bridge positions count the residues as written; N and C are the ends."}
{"compound": "N[C@@H](Cc1ccc(N(CCCl)CCCl)cc1)C(=O)O", "note": "[melphalan]", "values": [{"measurement": "increase in tumor volume", "setting": "[1]", "result": 439.4, "unit": "%"}, {"measurement": "anti-tumor response", "setting": "[2]; rat, in vivo", "result": "no detectable anti-tumor response"}]}
{"compound": "CC(=O)O[C@H]1C(=O)[C@@]2(C)[C@H]([C@H](OC(=O)c3ccccc3)[C@]3(O)C[C@H](OC(=O)[C@H](O)[C@@H](NC(=O)c4ccccc4)c4ccccc4)C(C)=C1C3(C)C)[C@]1(OC(C)=O)CO[C@@H]1C[C@@H]2O", "note": "[paclitaxel]", "values": [{"measurement": "complete cures out of 10 animals", "setting": "[3]", "result": 10, "unit": "%"}, {"measurement": "delay in tumor growth", "setting": "[3]", "result": "transient delay in tumor growth"}]}
{"compound": "N—Ac-CHAVC-NH2 (disulfide 1-5 (inferred)) [ADH-1]", "values": [{"measurement": "anti-tumor response", "setting": "[2]; DM738 tumors, single ILI of melphalan and/or systemic ADH-1, compared to vehicle control", "result": "no detectable anti-tumor response"}, {"measurement": "tumor response to treatment (resistance)", "setting": "A375 tumors", "result": "resistant"}]}
